Results on four compounds are retold here after publication PMC8205077, “Phenyl-substituted aminomethylene-bisphosphonates inhibit human P5C reductase and show antiproliferative activity against proline-hyperproducing tumour cells” (Journal of Enzyme Inhibition and Medicinal Chemistry, 2021).

Structures can show the parent of a compound that is named as a salt. Where two headings read alike, the source gives them in different places.

The subject of one data set is breast cancer cell. As to conditions: at 10 μM; cited from earlier work.
The target in the next data set is human P5C reductase. As to conditions: cited from earlier work.
The target in data set [1] is T1, human P5C reductase 1 (PYCR1) (Homo sapiens, UniProt P32322).
T1 construct: His-tag; made in house; host or cells: E. coli BL21(DE3) pLysS
T1 sequence (P32322 1-319): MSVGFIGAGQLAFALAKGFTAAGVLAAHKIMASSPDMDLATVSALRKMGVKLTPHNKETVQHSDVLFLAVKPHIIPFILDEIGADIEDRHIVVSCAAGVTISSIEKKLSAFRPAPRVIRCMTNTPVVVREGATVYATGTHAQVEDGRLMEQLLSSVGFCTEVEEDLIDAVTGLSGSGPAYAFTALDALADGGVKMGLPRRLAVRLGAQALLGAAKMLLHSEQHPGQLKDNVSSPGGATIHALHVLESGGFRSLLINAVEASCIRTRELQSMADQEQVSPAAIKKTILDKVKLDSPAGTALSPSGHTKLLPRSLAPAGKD
The experiment in a line: P5C reductase assay (P5C-dependent oxidation of NAD(P)H). In kind it is biochemical. The settings on record: for effect on the activity of human P5C reductase: at concentrations as low as 1 μM. How it is done: The gene coding for P5C reductase 1 (PYCR1, gene ID 5831), cloned into the expression vector pET28a^+[34], was kindly provided by prof. Zihe Rao (Tsinghua University, China). For heterologous expression, E. coli BL21(DE3) pLysS cells (Invitrogen) were made competent by the calcium chloride method, transformed with the recombinant vector and selected on kanamycin-containing LB plates. About 6 h after inducing gene expression in liquid LB medium at 24 °C by the addition of 1 mM isopropyl-D-thiogalactopyranoside, cells were harvested by centrifugation and stored at −20 °C. Aliquots (about 1 g cell material) were lysed in an ice-cold mortar with 2 g g^−1 alumina and resuspended in 20 mL g^−1 extraction buffer (50 mM Na phosphate buffer, pH 7.5, containing 200 mM NaCl and 20 mM imidazole). The His-tagged protein was purified from clarified extracts by affinity chromatography onto a His-Trap^TM FF column (1 mL, GE Healthcare 17–5319-01). Stepwise elution was achieved by increasing concentrations of imidazole in extraction buffer. Discontinuous SDS–polyacrylamide gel electrophoresis was performed at 8 mA with a 5% stacking and a 12% separating gel, using a Minigel system (BioRad). Samples were mixed with the same volume of 125 mM Tris–HCl buffer (pH 6.8) containing 4% (w/v) SDS, 20% (v/v) glycerol and 10% (v/v) β-mercaptoethanol, and denatured 5 min at 100 °C. Proteins were visualised by soaking gels in Quick Coomassie Stain (CliniSciences) overnight.
Enzyme activity was measured at 30 °C as the P5C-dependent oxidation of NAD(P)H. Assays were performed in 96-microwell plates in a final volume of 0.2 mL. The assay mixture contained 4 mM DL-P5C and 0.5 mM of either NADH or NADPH in 50 mM Tris-HCl buffer, pH 7.5. Parallel blanks were performed in which P5C had been omitted. The decrease of absorbance was measured for 5 min at 0.5-min intervals using a Ledetect plate reader (Labexim, Lengau, Austria) equipped with a LED plugin at 340 nm. Residual NAD(P)H content was estimated on the basis of calibration curves obtained under the same conditions. Activity was calculated by linear regression of data using Prism 6 for Windows, version 6.03 (GraphPad Software, San Diego, CA); one unit of activity was defined as the amount of enzyme that catalyses the P5C-dependent oxidation of 1 nmol NAD(P)H s^−1 (nkat). Proteins were measured by the Coomassie Brilliant Blue method, using bovine serum albumin as the standard. To evaluate substrate affinity, invariable substrates were fixed at the same levels as in the standard assay. For variable substrates, L-P5C ranged from 400 to 2000 μM, while the concentration of NADH and NADPH ranged from 125 to 500 μM. To evaluate the inhibition brought about by pargylines and aminomethylene-bisphosphonates, freshly prepared 10 mM stock solution in water and 100 mM Tris-HCl buffer pH 7.5, respectively, were diluted with water and added to the reaction mixture before enzyme addition. Parallel control samples were carried out in the absence of any inhibitor. Activity was calculated as described above. Mean activity value in controls was set as 100%, and activity in treated samples was expressed as percent of such value. Percent values were plotted against the logarithm of inhibitor concentration, and data were interpolated using the equation Y = 100/(1 + 10^∧((LogIC50-X)*HillSlope)). Assays were performed in triplicate (technical replications). Each experiment was repeated at least twice with different enzyme preparations (biological replicates). KM and Vmax values, as well as the concentrations causing 50% inhibition (IC50), KI values and their confidence intervals were estimated by non-linear regression analysis using Prism 6.

The test system of data set [2] is human myelogenous erythroleukemic K562 cells. The experiment in a line: Antiproliferative assay, K562 cells. In kind it is cell-based. As to conditions: for IC50: Homo sapiens, K562. The protocol: (§1) Human myelogenous erythroleukemic K562 cells[36] were cultured in a humidified atmosphere of 5% CO2/air either in complete RPMI 1640 medium (Lonza, Verviers, Belgium) or in a modified medium without L-proline (United States Biological, Massachusetts, USA), both supplemented with 10% foetal bovine serum (FBS; Biowest, Nuaillé, France), 100 U mL^−1 penicillin and 100 μg mL^−1 streptomycin. Human epithelial breast cancer MDA-MB-231 cells[37] were cultured under the same conditions in DMEM medium (Lonza, Verviers, Belgium) supplemented with 10% FBS, 100 U mL^−1 penicillin, 100 μg mL^−1 streptomycin and 2 mM L-glutamine.
(§2) K562 cells in the late exponential phase of growth were seeded in 1 mL medium without FBS in 24-well plates to an initial density of about 20,000 cells mL^−1. Treatments with Br2PAMBPA in the range 1–200 µM were carried out 5 h after seeding. Cell growth was monitored at increasing time after the treatment by determining cell density on 50-μL aliquots with a Z1 Coulter Counter (Coulter Electronics), considering a dimensional range between 8 and 20 μm. MDA-MB-231 cells in the late exponential phase of growth (90% confluence) were washed with sterile PBS, incubated with sterile trypsin-EDTA solution (Sigma-Aldrich, Saint Louis, USA) for 2 min, resuspended in fresh DMEM medium and centrifuged at 1000 g at room temperature for 5 min. Pellets were resuspended in sterile PBS and spun again to remove any residue of trypsin. Cells were finally resuspended in DMEM medium without FBS, and seeded in 24-well plates in a final volume of 1 mL to an initial density of about 20,000 cells mL^−1. Treatments with Br2PAMBPA in the range 1–200 µM were carried out 5 h after seeding, and 2% FBS was added to each well 24 h thereafter. Cell growth was monitored at increasing time after the treatment by destructive harvest. For both cell lines each treatment was carried out at least in triplication, and each experiment was performed at least twice.

The test system of data set [3] is K562 cells. Briefly: Measurement of intracellular free proline and P5C levels, K562 cells. In kind it is cell-based, human. The protocol: For proline and P5C quantification, treatments were carried out in T-25 flasks containing 10 mL medium. Cells were harvested by centrifugation at 1000 g for 5 min at RT. Each pellet was resuspended in 1.4 mL of sterile PBS and spun again to remove the medium. Washed pellets were transferred on ice, resuspended in a minimal volume of a 3% (w/v) solution of 5-sulfosalicylic acid and subjected to various freeze-thaw cycles to induce rupture of the phospholipid membrane. Cell debris were sedimented by centrifugation at 12,000 g for 5 min at RT, and the supernatants were analysed by the acid ninhydrin method of Williams and Frank, as described.

For data set [4], the system named is human epithelial breast cancer MDA-MB-231 cells. Briefly: Antiproliferative assay, MDA-MB-231 cells. In kind it is cell-based. The protocol:
as §1
as §2, with “Cells were finally resuspended in DMEM medium without FBS, and seeded in 24-well plates in a final volume of 1 mL to an initial density of about 20,000 cells mL^−1.” left out

In data set [5] the test system is K562 cells. The experiment in a line: Cell viability assay (Trypan Blue exclusion), K562 cells. In kind it is cell-based, human. The settings on record: modified RPMI medium not containing proline, 96 h after the inoculum. How it is done:
Cell viability was assessed by the Trypan Blue exclusion test[38]. Stained cells were counted in a Bürker chamber. Viable and nonviable cells were recorded separately, and the results of three independent counts were pooled. Data were expressed as percent of alive cells.

Another data set concerns the target glutamine synthetase. The settings on record: human enzyme; cited from earlier work.
The mark [6] stands for this setting: IC50, NADH as the electron donor.
Where [7] appears, read: IC50, NADPH as the electron donor.
The mark [8] stands for this setting: treated serum-free, 2% FBS added 24 h thereafter.
Setting [9] is: IC50 values, abstract, cofactor not specified.

For the compound `C#CCN(C)Cc1ccc(Br)cc1` [4-bromopargyline, reference compound], the “reduction of breast cancer cell proliferation” value in the data set with breast cancer cell is recorded as 30–40%. The IC50 on human P5C reductase was 9 µM; in data set [1] (setting [6]), 234 ± 28 µM; in data set [1] (setting [7]), 9 µM; in data set [1] (NADPH as the electron donor, read-out: IC50), 8.7 ± 0.8 µM.
As for `O=P(O)(O)C(Nc1cc(Br)cc(Br)c1)P(=O)(O)O` [Br2PAMBPA, 3,5-dibromophenylaminomethylene-bisphosphonic acid], the IC50 is approximately 20 µM in data set [2] (modified RPMI medium not containing proline, read-out: concentration giving 50%-inhibition of growth); approximately 7 µM in data set [2] (unmodified RPMI medium containing 20 mg L^−1 (174 μM) Pro, read-out: concentration giving 50% inhibition of growth); 0.48 ± 0.03 µM in data set [1] (setting [6]); 0.39 ± 0.03 µM in data set [1] (setting [7]); less than 1 µM in data set [1] (setting [9]). Also, the “concentrations progressively impairing growth” value in data set [2] (abstract) and in data set [4] (abstract) was 10^−6 to 10^−4 M throughout. Further, the “concentration range in which growth was inhibited” value in data set [2] (modified RPMI medium not containing proline) is 2 to 200 µM. The “levels of P5C” value in the data set on K562 cells [3] (all cases, detection limit printed as > 1 nmol [10^6 cells]^−1) was “no detectable”. Moreover, the free proline concentration in the data set on K562 cells [3] (control and treated K562 cells, with or without exogenous proline) is listed as 4–5 nmol (10^6 cells)^−1. In addition, in the data set on K562 cells [3] (modified RPMI medium not containing proline, 96 h after the inoculum), the “intracellular levels of free proline vs controls” value is listed as “not significantly different than in controls”. In the data set with K562 cells [3] (unmodified RPMI medium with 20 mg L^−1 Pro, at 50 µM), the “reduction of free proline content with respect to viable cells” value is “less than 50%”. Besides, the “free proline content with respect to viable cells” value in the data set with K562 cells [3] (unmodified RPMI medium with 20 mg L^−1 Pro, up to 50 µM) is reported as “no reduction was evident”. Also, the “effect on cell proliferation in standard medium” value in data set [4] (DMEM with FBS, concentrations exceeding 50 μM, preliminary, data not shown) is given as “only mild effects”. Further, in data set [4] (setting [8]), the “concentration from which cell growth rate and maximal cell density were progressively reduced” value is not below 5 µM. Further, the “concentration from which cell proliferation was completely abolished” value in data set [4] (setting [8]) is not below 50 µM. In the data set on K562 cells [5], the “concentrations at which cell viability was significantly reduced” value is listed as “exceeding 50 µM”. The “type of inhibition with NADH as the variable substrate” value in data set [1] is on record as “mixed-type”. Also, the Ki in data set [1] (NADH as variable substrate (Fig. 4D)) stood at 0.66 ± 0.21 µM; in data set [1] (NADPH as variable substrate (Fig. 4C)) it was 0.48 ± 0.08 µM; in data set [1] (P5C as variable substrate, NADH as electron donor (Fig. 4B)), 0.12 ± 0.01 µM; in data set [1] (P5C as variable substrate, NADPH as electron donor (Fig. 4A)), 0.32 ± 0.02 µM. For the same compound, the “mechanism of inhibition against both P5C and NADPH” value in data set [1] (abstract) is “competitive type”. For the same compound, the “effect on the activity of human P5C reductase” value in data set [1] is reported as “almost completely suppressed”. Besides, in data set [1] (with NADPH or NADH as the electron donor), the “type of inhibition against P5C” value is recorded as “competitive type”.
Consider `C#CCN(C)Cc1ccccc1` [Pargyline, N-methyl-N-(2-propynyl)benzylamine hydrochloride, reference compound], for which the IC50 at human P5C reductase (listed as pargylin) was 200 µM; at human P5C reductase (listed as pargyline), 198 µM; in data set [1] (setting [6]) it was more than 10000 µM; in data set [1] (setting [7]), 81 µM.
Consider `O=P(O)(O)C(Nc1cc(Cl)cc(Cl)c1)P(=O)(O)O` [3,5-Cl2PAMBPA], for which the IC50 on glutamine synthetase was 780 ± 30 µM; in data set [1] (setting [6]), 0.78 ± 0.04 µM; in data set [1] (setting [7]), 0.74 ± 0.06 µM; in data set [1] (setting [9]) it was less than 1 µM. Moreover, the “mechanism of inhibition against both P5C and NADPH” value in data set [1] (abstract) is “competitive type”. In addition, the “effect on the activity of human P5C reductase” value in data set [1] is reported as “almost completely suppressed”.

The Ki is the equilibrium dissociation constant of an inhibitor or competing ligand from its target. The low end stands for tighter binding, the high end for weaker binding.
